Like-named read-outs stand apart in the source and are kept apart here.
Experiments:
human α7-nAChR = human α7-nAChR (Homo sapiens, UniProt P36544); assay: whole-cell current responses of α7-nAChR to choline; assay type: cell-based
Protocol: (§1) FIG. 9 illustrates that IPT-mediated functional block persisted for α4β2- but not α4β4-nAChR after 3 min of drug washout.
(§2) FIG. 9C depicts the IPT concentration (abscissa; log μM scale) dependence of inhibition of function (ordinate; peak whole-cell current responses normalized to those in the absence of IPT; mean±SE, n=6 cells) of human α4β2-(▪), α4β4-(◯), or α7-(▴) nAChR when IPT is co-applied with agonists.
A double asterisk (**) represents p<0.01.

[1] = test system: extracellular dopamine levels in the nucleus accumbens; assay: microdialysis of extracellular dopamine in nucleus accumbens of acute nicotine-administered rats; assay type: in vivo, rat
Excerpt: Finally, the effects of IPT on the extracellular dopamine levels in the nucleus accumbens of acute nicotine-administered rats are illustrated by microdialysis.

human α4β4-nAChR = human α4β4-nAChR (Homo sapiens, UniProt P30926+P43681); assay: whole-cell current responses of α4β4-nAChR; assay type: cell-based
Protocol: as §1, §2

[2] = target: α4β2-nAChR agonist binding sites (Homo sapiens, UniProt P17787+P43681); assay: 3H-epibatidine radioligand binding assay
human α4β2-nAChR = target: T1, human α4β2-nAChR (Homo sapiens, UniProt P17787+P43681); assay: whole-cell voltage-clamp currents of heterologously expressed human α4β2-nAChR in SH-EP1 cells; assay type: cell-based; conditions: for reduction of peak current amplitude after initial co-application of nicotine with IPT / peak amplitude of 3 μM nicotine-induced current, % of control / response to nicotine challenge after 15 min of IPT exposure, % of control: 3 μM IPT; for reduction of peak current amplitude after initial co-application of nicotine with IPT: 0 min
T1 construct: expressed in transfected cells; host or cells: SH-EP1 human epithelial cell line (SH-EP1-hα4β2)
Excerpt: Heterologously expressed, human α4β2-nAChRs in cloned human epithelia cell (SH-EP1 cell line) were employed as a cellular model to test IPT's pharmacology. IPT acts as a potent and selective antagonist of α4-containing nAChR. IPT inhibits both peak and steady-state whole-cell current responses to nicotinic agonists and accelerates acute desensitization in a concentration-dependent manner while having long-lasting effects after washout. Its effects are enhanced by exposure to nAChR prior to agonist challenge.
The whole-cell traces of nicotinic responses with and without IPT are superimposed in the right traces. For these and all subsequent traces, current amplitude and time calibration bars are indicated, the holding potential (vH) was −60 mV unless indicated otherwise, and the duration of ligand exposure is indicated by the bars above the trace.
In this and all following figures, unless specifically mentioned, each column (or symbol) is the average from 4-6 cells tested, and vertical bars indicate±standard error.

native α4β2-nAChR = target: T2, native α4β2-nAChR (Rattus norvegicus, UniProt P09483+P12390); assay: RJR-2403-induced currents in single dopamine neurons acutely dissociated from rat VTA; assay type: cell-based; conditions: VTA DA neurons; peak and steady-state currents
T2 construct: native expressed α4β2-nAChRs in single dopamine neurons acutely dissociated from rat VTA; from tissue; host or cells: dopamine neurons acutely dissociated from rat ventral tegmental area (VTA)
Excerpt: FIG. 10 illustrates how typical traces representing four VTA DA neurons responded to α4β2-nAChR selective agonist, RJR-2403 with (FIG. 10B) and without IPT (FIG. 10A). […] Finally, FIG. 10C summarizes the inhibition-efficacy relationship curves of IPT-induced inhibition in peak and steady-state currents.

[3] = 3 μM IPT co-applied with 3 μM nicotine, n=6
[4] = 50 μM IPT, 3 μM nicotine, holding potential 0 mV
[5] = 50 μM IPT, 3 μM nicotine, holding potential −40 mV
[6] = 50 μM IPT, 3 μM nicotine, holding potential −80 mV

Chain of α4β2-nAChR agonist binding sites (P43681 29-627 limits assumed): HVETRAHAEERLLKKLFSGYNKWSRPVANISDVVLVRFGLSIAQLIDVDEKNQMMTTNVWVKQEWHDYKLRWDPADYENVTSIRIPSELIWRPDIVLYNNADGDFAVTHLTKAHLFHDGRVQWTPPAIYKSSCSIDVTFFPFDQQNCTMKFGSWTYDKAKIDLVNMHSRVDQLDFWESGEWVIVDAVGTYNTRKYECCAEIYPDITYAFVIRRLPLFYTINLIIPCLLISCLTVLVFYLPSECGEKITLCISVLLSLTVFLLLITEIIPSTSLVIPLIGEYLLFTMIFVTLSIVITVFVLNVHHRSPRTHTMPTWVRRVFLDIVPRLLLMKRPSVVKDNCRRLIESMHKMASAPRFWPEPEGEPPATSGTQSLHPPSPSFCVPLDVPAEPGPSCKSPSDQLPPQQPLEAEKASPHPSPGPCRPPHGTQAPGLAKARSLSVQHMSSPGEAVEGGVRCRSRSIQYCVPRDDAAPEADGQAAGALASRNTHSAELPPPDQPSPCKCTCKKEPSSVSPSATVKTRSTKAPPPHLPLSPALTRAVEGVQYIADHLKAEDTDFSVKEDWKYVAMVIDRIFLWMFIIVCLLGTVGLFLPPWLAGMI
Chain of α4β2-nAChR agonist binding sites (P17787 26-502): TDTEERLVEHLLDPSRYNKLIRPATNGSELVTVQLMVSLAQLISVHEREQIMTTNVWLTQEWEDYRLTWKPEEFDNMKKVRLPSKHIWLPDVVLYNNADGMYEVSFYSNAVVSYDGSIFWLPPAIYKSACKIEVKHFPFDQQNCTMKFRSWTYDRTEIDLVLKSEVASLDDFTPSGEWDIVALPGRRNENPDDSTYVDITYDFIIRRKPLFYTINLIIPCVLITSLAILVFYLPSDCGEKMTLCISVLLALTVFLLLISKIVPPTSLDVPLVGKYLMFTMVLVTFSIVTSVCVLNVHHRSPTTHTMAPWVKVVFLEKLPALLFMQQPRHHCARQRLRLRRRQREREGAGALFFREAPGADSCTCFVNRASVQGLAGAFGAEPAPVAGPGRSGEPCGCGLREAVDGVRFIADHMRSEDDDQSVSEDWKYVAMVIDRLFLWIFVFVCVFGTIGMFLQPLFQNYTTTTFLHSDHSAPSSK
T1 sequence (P43681 29-627 limits assumed): as the sequence (P43681 29-627 limits assumed) above
T1 sequence (P17787 26-502): as the sequence (P17787 26-502) above
Chain of human α4β4-nAChR (P43681 29-627 limits assumed): as the sequence (P43681 29-627 limits assumed) above
Chain of human α4β4-nAChR (P30926 22-498): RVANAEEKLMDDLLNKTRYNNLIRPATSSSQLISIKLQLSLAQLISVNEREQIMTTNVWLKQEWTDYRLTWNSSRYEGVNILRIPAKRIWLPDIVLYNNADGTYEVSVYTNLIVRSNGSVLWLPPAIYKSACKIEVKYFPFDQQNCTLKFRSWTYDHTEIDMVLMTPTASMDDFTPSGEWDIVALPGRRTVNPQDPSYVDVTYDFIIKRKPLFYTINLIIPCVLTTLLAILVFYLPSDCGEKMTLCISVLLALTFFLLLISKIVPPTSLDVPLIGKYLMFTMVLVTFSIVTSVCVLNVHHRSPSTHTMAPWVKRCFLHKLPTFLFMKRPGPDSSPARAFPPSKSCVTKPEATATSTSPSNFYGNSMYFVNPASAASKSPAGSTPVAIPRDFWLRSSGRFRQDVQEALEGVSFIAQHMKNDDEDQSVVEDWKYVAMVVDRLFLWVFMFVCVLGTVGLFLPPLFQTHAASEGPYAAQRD
Chain of human α7-nAChR (P36544 23-502): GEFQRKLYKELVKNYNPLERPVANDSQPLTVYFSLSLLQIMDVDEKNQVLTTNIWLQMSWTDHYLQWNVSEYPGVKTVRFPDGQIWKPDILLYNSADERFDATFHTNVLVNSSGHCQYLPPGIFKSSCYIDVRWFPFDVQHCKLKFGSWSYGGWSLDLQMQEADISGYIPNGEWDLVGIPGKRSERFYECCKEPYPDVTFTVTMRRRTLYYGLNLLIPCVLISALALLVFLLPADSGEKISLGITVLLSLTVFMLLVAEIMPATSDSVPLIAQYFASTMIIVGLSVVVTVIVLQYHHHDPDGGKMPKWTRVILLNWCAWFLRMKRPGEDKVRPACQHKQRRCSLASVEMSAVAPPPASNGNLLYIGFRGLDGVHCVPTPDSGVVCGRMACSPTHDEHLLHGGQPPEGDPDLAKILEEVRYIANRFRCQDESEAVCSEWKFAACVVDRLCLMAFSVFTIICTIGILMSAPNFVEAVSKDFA
T2 sequence (P09483 31-630): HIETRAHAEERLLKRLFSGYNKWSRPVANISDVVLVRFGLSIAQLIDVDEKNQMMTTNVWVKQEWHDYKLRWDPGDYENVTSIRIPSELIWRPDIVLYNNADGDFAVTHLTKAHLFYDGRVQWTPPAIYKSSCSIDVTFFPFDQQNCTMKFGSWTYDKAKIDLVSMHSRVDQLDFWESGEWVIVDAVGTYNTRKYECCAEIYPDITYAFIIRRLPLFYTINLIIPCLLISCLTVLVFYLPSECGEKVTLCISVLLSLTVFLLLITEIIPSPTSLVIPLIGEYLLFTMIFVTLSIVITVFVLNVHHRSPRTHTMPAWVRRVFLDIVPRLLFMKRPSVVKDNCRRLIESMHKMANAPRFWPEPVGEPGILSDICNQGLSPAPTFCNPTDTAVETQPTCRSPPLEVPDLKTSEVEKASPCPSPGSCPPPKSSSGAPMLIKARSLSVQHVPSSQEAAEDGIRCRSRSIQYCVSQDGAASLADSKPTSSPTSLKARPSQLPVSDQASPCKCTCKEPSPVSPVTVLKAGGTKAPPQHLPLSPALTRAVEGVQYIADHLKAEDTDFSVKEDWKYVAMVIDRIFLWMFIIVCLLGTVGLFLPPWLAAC
T2 sequence (P12390 25-500): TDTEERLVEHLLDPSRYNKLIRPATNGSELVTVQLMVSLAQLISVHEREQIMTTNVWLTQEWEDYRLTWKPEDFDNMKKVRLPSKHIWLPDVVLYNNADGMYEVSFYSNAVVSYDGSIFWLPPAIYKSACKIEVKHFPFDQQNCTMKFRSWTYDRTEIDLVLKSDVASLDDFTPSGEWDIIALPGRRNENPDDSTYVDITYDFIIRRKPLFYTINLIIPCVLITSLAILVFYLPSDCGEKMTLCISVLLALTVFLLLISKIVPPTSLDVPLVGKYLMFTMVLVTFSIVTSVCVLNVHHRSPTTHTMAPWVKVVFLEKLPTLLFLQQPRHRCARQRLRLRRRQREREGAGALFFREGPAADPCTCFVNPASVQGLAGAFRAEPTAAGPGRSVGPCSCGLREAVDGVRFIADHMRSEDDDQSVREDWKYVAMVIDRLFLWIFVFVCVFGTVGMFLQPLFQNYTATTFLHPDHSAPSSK

## CC(C)NC(C)(C)C(C)C.Cl [IPT, iptakalim hydrochloride]
Human α7-nAChR; 10 μM IPT, 3 min pre-treatment then co-application, 1 mM choline
  inhibition of α7-nAChR-mediated currents: 3.5±0.4%
Human α7-nAChR; co-application with agonist (choline), peak current, read-out: IC50 for α7-nAChR blockade
  IC50: > 1 mM
[1]; local perfusion with IPT 1-100 μM from microdialysis probe after s.c. nicotine 0.5 mg/kg, significant 20-80 minutes after nicotine
  effect on nicotine-induced elevation of dopamine in the nucleus accumbens: tended to decrease nicotine-induced elevation of dopamine
Human α4β4-nAChR; 50 μM IPT, 1 μM nicotine
  persistence of functional block after 3 min of drug washout: not
Human α4β4-nAChR; co-application with agonist (1 μM nicotine), peak current, read-out: IC50 for functional inhibition
  IC50: 23 µM
[2]; concentrations up to 1 mM
  block of 3H-epibatidine binding: failed to block radioligand binding
Human α4β2-nAChR; 3 μM IPT co-applied with 3 μM nicotine, VH −60 mV, n=6
  reduction of peak whole-cell current (Ip): 20.85±2.69%
Human α4β2-nAChR; [3]
  acceleration of rate of decay from peak to steady-state current: 21.38±3.40%
  reduction of ratio of steady-state to peak current (Is/Ip): 68.62±2.23%
Human α4β2-nAChR; 3 μM nicotine, nicotine at start and end only (second value)
  reduction of peak current amplitude after initial co-application of nicotine with IPT: 13.6±2.4%
Human α4β2-nAChR; 3 μM nicotine, repetitive nicotine challenge protocol (first value)
  reduction of peak current amplitude after initial co-application of nicotine with IPT: 16.8±6.1%
Human α4β2-nAChR; 3 min pre-treatment ending before exposure to nicotine alone
  peak amplitude of 3 μM nicotine-induced current, % of control: 81±7 % of control
Human α4β2-nAChR; 3 min pre-treatment followed by continued co-application
  peak amplitude of 3 μM nicotine-induced current, % of control: 62±4 % of control
Human α4β2-nAChR; after repeated nicotine challenges (4 sec at 3 min intervals)
  response to nicotine challenge after 15 min of IPT exposure, % of control: 11.9±1.7 % of control
Human α4β2-nAChR; co-application with nicotine without pre-treatment
  peak amplitude of 3 μM nicotine-induced current, % of control: 79±9 % of control
Human α4β2-nAChR; without repeated nicotine challenges
  response to nicotine challenge after 15 min of IPT exposure, % of control: 29.8±3.3 % of control
Human α4β2-nAChR; 10 μM IPT, 3 min pre-treatment then co-application, 3 μM nicotine
  inhibition of α4β2-nAChR-mediated currents: 70±11%
Human α4β2-nAChR; [4]
  current decay constant, % of control: 44±7.6 % of control
  fractional inhibition of whole-cell peak current responses to nicotine: 68.9±3.5%
Human α4β2-nAChR; [5]
  current decay constant, % of control: 30±1.1 % of control
  fractional inhibition of whole-cell peak current responses to nicotine: 76.4±2.6%
Human α4β2-nAChR; [6]
  current decay constant, % of control: 22±3.4 % of control
  fractional inhibition of whole-cell peak current responses to nicotine: 80.9±2.65%
Human α4β2-nAChR; 50 μM IPT, 3 μM nicotine
  persistence of functional block after 3 min of drug washout: persisted
Human α4β2-nAChR; 50 μM IPT, agonist ACh 10 μM
  block of peak whole-cell currents: 65.81±1.49%
Human α4β2-nAChR; 50 μM IPT, agonist RJR-2403 3 μM
  block of peak whole-cell currents: 72.72±1.98%
Human α4β2-nAChR; 50 μM IPT, agonist cytisine 100 μM (maximally efficacious, partial agonist)
  block of responses to cytisine: 49.32±3.46%
Human α4β2-nAChR; 50 μM IPT, agonist nicotine 3 μM
  block of peak whole-cell currents: 76.37±2.56%
Human α4β2-nAChR; co-application condition, 3 μM nicotine, n=6, read-out: IC50 for inhibition of whole-cell steady-state current
  IC50: 1 µM
Human α4β2-nAChR; co-application with agonist, without pretreatment, 3 μM nicotine, read-out: IC50 for inhibition of peak whole-cell responses
  IC50: 31 µM
Human α4β2-nAChR; washout after 4 sec exposure to 50 μM IPT, 3 μM nicotine
  half-time for recovery of peak current response to nicotine challenge: ~15 min
Human α4β2-nAChR; with 3 min pretreatment with IPT, 3 μM nicotine, read-out: IC50 for inhibition of peak whole-cell responses
  IC50: 5 µM
Native α4β2-nAChR
  effect on RJR-2403-induced current response: inhibited RJR-2403-induced current response in a concentration-dependent manner

## CNC1(C)C2CCC(C2)C1(C)C (stereo not drawn) [mecamylamine]
[2]; concentrations up to 1 mM
  block of 3H-epibatidine binding: failed to block radioligand binding

## CN1CCCC1c1cccnc1 (stereo not drawn) [nicotine, reference compound]
[1]; subcutaneous nicotine 0.5 mg/kg, control group
  increase in dopamine levels versus final sample prior to nicotine administration: 100%
[2]; with previously reported IC50 values
  block of 3H-epibatidine binding: blocked
